“Also recorded” adds a separate entry of the source. Where no end group is shown, it is not given here.
Legend:
[1] = tested on: normal lung fibroblasts (NLF); assay: Collagen and ASMA expression in NLF treated with CSD and its subdomains; assay type: cell-based, human; details: for ASMA expression: peptides at 1, 3, and 5 μM
Procedure: (§1) The indicated cell types (NLF and SLF) were cultured as described with 0, 1, 3, or 5 μM of the indicated peptides. Collagen in the medium and ASMA and actin (loading control) in the cell layer were detected by Western blotting. Blots were quantified densitometrically. The level of collagen and ASMA in cells treated with no peptide (divided by the level of actin) was set to 100 arbitrary units. Because SLF express higher levels of collagen and ASMA than do NLF, 100 arbitrary of collagen in SLF is equivalent to 195 arbitrary units of collagen in NLF and 100 arbitrary units of ASMA in SLF is equivalent to 255 arbitrary units of ASMA in NLF. The data presented are the average of the densitometric quantification of three independent experiments.
(§2) To compare the activity of CSD to its subdomains, five subdomains [A (82-88 amino acids), B (89-95), C (96-101), AB (82-95) and BC (89-101)] were synthesized in fusion with the Antennapedia internalization sequence and added to culture medium at 1, 3, and 5 μM. […] Very different results were obtained when examining ASMA expression.

[2] = tested on: scleroderma lung fibroblasts (SLF); assay: Collagen and ASMA expression in SLF treated with CSD and its subdomains; assay type: cell-based, human; details: for ASMA expression: peptides at 1, 3, and 5 μM; for inhibition of ASMA expression / inhibition of collagen expression: 5 μM peptide
Procedure: as §1, §2

[3] = tested on: normal lung fibroblasts (NLF); assay: Kinase (signaling) inhibitor treatment of NLF, Western blotting; assay type: cell-based, human; design: key to Collagen / Tenascin-C / ASMA / Ph-ERK / Ph-JNK / Ph-Akt: a decrease ↓; an increase ↑; no effect —; details: for ASMA expression / Akt activation / ERK activation / JNK activation / collagen expression / tenascin-C expression: 10 μM inhibitor, result in words; for ASMA / Ph-Akt / Ph-ERK / Ph-JNK / Collagen / Tenascin-C: inhibitor 10 μM, serum-free medium, Western blotting; for ASMA / Ph-Akt / Ph-ERK / Ph-JNK: cell layer; for Collagen / Tenascin-C: culture medium
From the text: (§3) Fibroblasts were derived from lung tissue obtained at autopsy from scleroderma patients (SLF) and from age-, race-, and sex-matched normal subjects (NLF) and cultured as previously described (44). Cells were used in passages 2-4. The group of scleroderma patients fulfilled the criteria of American college of Rheumatology for the diagnosis of scleroderma with lung involvement. Normal human lung tissue was obtained from the Brain and Tissue Bank for Developmental Disorders (Baltimore, Md.) or from the National Disease Research Interchange (Philadelphia, Pa.). Scleroderma lung tissue was obtained from the Division of Pathology and Laboratory Medicine at the Medical University of South Carolina (MUSC). The study was approved by the Institutional Review Board for Human Subject Research at the MUSC.
(§4) U0126 (MEK inhibitor), SP600125 (JNK inhibitor), LY294002 (PI3 kinase inhibitor) and Akt inhibitor VIII were purchased from Calbiochem and dissolved in DMSO (mM). Cells in 6-well plates were treated with 10 μM of inhibitors in serum-free medium for 6 h (U0126) or 24 h for the other inhibitors prior to the harvesting of cells and medium.
(§5) Cell layers were harvested in boiling SDS-PAGE sample buffer; medium was dialyzed, lyophilized, and resuspended in sample buffer. Aliquots of culture medium or of cell layer representing material derived from the same number of cells was probed using the following primary antibodies and appropriate secondary antibodies. Culture medium: goat anti-human collagen I (AB758P) and rabbit anti-human tenascin-C (AB19011) from Chemicon International (Temecula, Calif.). Cell layer: rabbit antibodies against PKCα (sc-208), PKCε (sc-214), activated JNK (sc-12882), activated Akt Thr 308 (sc-166646R) and caveolin-1 (sc-894) from Santa Cruz Biotechnology (Santa Cruz, Calif.); rabbit antibodies against ERK 1/2 (9102), activated ERK 1/2 (9106), JNK (9252), Akt (9272), MEK 1/2 (9122), and activated MEK 1/2 (9121) from Cell Signaling (Beverly, Mass.); mouse monoclonal anti-ASMA (clone 1A4) from Sigma (Saint Louis, Mo.), and mouse monoclonal anti-actin (MAB1501) from Chemicon International (Temecula, Calif.).
(§6) Immunoreactive bands were quantified by densitometry using the Image 1.32J NIH software. For statistical analysis the raw densitometric data were processed and analyzed using the Prism 3.0 (GraphPad Software Inc.) statistical analysis software.

[4] = tested on: scleroderma lung fibroblasts (SLF); assay: Kinase (signaling) inhibitor treatment of SLF, Western blotting; assay type: cell-based, human; design: key to Collagen / Tenascin-C / ASMA / Ph-ERK / Ph-JNK / Ph-Akt: a decrease ↓; an increase ↑; no effect —; details: for ASMA expression / Akt activation / ERK activation / JNK activation / collagen expression / tenascin-C expression: 10 μM inhibitor, result in words; for ASMA / Ph-Akt / Ph-ERK / Ph-JNK / Collagen / Tenascin-C: inhibitor 10 μM, serum-free medium, Western blotting; for ASMA / Ph-Akt / Ph-ERK / Ph-JNK: cell layer; for Collagen / Tenascin-C: culture medium
From the text: as §3, §4, §5, §6

[5] = tested on: eNOS; details: endothelial cells; Bernatchez et al. (4); cited from earlier work
[6] = any concentration tested (1, 3, and 5 μM)

Row | Compound | ASMA expression [1] | ASMA expression [2] | ASMA expression [3] | JNK activation [3] | ASMA [3] | Ph-Akt [3] | Ph-ERK [3] | Ph-JNK [3] | Collagen [3] | Tenascin-C [3] | JNK activation [4] | ASMA [4] | Ph-Akt [4] | Ph-ERK [4] | Ph-JNK [4] | Collagen [4] | Tenascin-C [4] | eNOS activity [5] | further results
1 | A: CSD subdomain A (82-88 amino acids) synthesized in fusion with the Antennapedia internalization sequence (DGIWKAS; also: fused to Antennapedia internalization sequence; UniProt Q03135 82-88, looked up, fragment) | did not inhibit | did not inhibit |  |  |  |  |  |  |  |  |  |  |  |  |  |  |  |  | collagen expression [1, 6]: did not inhibit; collagen expression [2, 6]: did not inhibit
2 | N#CC(=C(/N)Sc1ccccc1N)/C(C#N)=C(\N)Sc1ccccc1N [Peptide U0126, U0126] |  |  | unaffected; also recorded: little or no effect | little or no effect | — | — | ↓ | — | ↓ | ↓ | little or no effect | — | — | ↓ | — | ↓ | ↓ |  | Akt activation [3]: little or no effect; ERK activation [3]: blocked; collagen expression [3]: blocked; tenascin-C expression [3]: inhibited; also recorded: blocked; ASMA expression [4]: unaffected; also recorded: little or no effect; Akt activation [4]: little or no effect; ERK activation [4]: blocked; collagen expression [4]: blocked; tenascin-C expression [4]: inhibited; also recorded: blocked
3 | O=c1cc(N2CCOCC2)oc2c(-c3ccccc3)cccc12 [LY294002] |  |  | no effect | no effect | — | ↓ | ↑ | — | ↓ | ↓ | no effect | ↓ | ↓ | ↑ | — | ↓ | ↓ |  | 
4 | C: CSD subdomain C (96-101) synthesized in fusion with the Antennapedia internalization sequence (KYWFYR; also: fused to Antennapedia internalization sequence; UniProt Q03135 96-101, looked up, fragment) |  | inhibited |  |  |  |  |  |  |  |  |  |  |  |  |  |  |  |  | inhibition of collagen expression ([1]; 5 μM peptide): approximately 50%; inhibition of ASMA expression [2]: approximately 50%; inhibition of collagen expression [2]: approximately 50%
5 | BC: CSD subdomain BC (89-101) synthesized in fusion with the Antennapedia internalization sequence (FTTFTVTKYWFYR; also: fused to Antennapedia internalization sequence; UniProt Q03135 89-101, looked up, fragment) | inhibited | inhibited |  |  |  |  |  |  |  |  |  |  |  |  |  |  |  | also inhibited | collagen expression ([1]; 3 μM peptide): completely inhibited; inhibition of ASMA expression ([1]; 5 μM peptide): about 80%; collagen expression ([2]; 3 μM peptide): completely inhibited; inhibition of ASMA expression [2]: about 80%
6 | Oc1c2ccccc2c2c3c(cccc13)N=N2 [SP600125] |  |  | no effect |  | — | ↓ | ↓ | ↓ | ↓ | ↓ |  | ↓ | ↓ | ↓ | ↓ | ↓ | ↓ |  | 
7 | AB: CSD subdomain AB (82-95) synthesized in fusion with the Antennapedia internalization sequence (DGIWKASFTTFTVT; also: fused to Antennapedia internalization sequence; UniProt Q03135 82-95, looked up, fragment) | did not inhibit | did not inhibit |  |  |  |  |  |  |  |  |  |  |  |  |  |  |  | also inhibited | inhibition of collagen expression ([1]; 5 μM peptide): approximately 50%; inhibition of collagen expression [2]: approximately 50%
8 | O=c1[nH]c2ccccc2n1C1CCN(Cc2ccc(-c3nc4cc5[nH]cnc5cc4nc3-c3ccccc3)cc2)CC1 [Akt inhibitor VIII] |  |  | no effect | no effect | — | ↓ | ↑ | — | ↓ | ↓ | enhanced | ↓ | ↓ | ↑ | ↑ | — | — |  | Akt activation [3]: inhibited; ERK activation [3]: enhanced; collagen expression [3]: inhibited; tenascin-C expression [3]: inhibited; ASMA expression [4]: inhibited; Akt activation [4]: inhibited; ERK activation [4]: enhanced; collagen expression [4]: no effect; tenascin-C expression [4]: no effect
9 | B: CSD subdomain B (89-95) synthesized in fusion with the Antennapedia internalization sequence (FTTFTVT; also: fused to Antennapedia internalization sequence; UniProt Q03135 89-95, looked up, fragment) | did not inhibit | did not inhibit |  |  |  |  |  |  |  |  |  |  |  |  |  |  |  | most strongly inhibited | collagen expression [1, 6]: did not inhibit; collagen expression [2, 6]: did not inhibit

Source: US8058227B2, “Method of treating fibrosis in a subject in need thereof comprising administering a composition comprising a CSD” (Medical University of South Carolina, priority 2006, dated 2011)
